Assay results taken from patent US10137113B2, “5-HT4 receptor agonist as a prokinetic agent” (RaQualia Pharma Inc., priority 2011, dated 2018).

Legend:
[1] = test system: gastric antrum of conscious dogs; experiment: Gastric antral motility by implanted force transducers, fasted conscious dogs, oral dosing; format: in vivo, dog
Method: (§1) GI motility was assessed by processing the signals from the force transducers implanted in dogs prepared for investigation of motility. Briefly, dogs were anesthetized with isoflurane and the abdominal cavity was opened under aseptic conditions. Extraluminal force transducers (F-12IS, Star Medical, Tokyo) were sutured onto the seromuscular layer of the gastric antrum, the gastric body, the duodenum, and the proximal colon. After the surgery, protective jackets were placed on the dogs and they were housed in individual cages. The dogs were fasted overnight before the experiment and placed in the shield room. The motility was measured with a telemetry system (GTS-800, Star Medical, Tokyo) and data acquired into a personal computer with the acquisition software (Eight Star, Star Medical, Tokyo). After confirmation of interdigestive migrating complex (IMC), the test drugs were administered orally. Gut motility was then recorded more than 5 hours (hrs). To measure the gastric motility quantitatively, motor indexes that represent areas of contractions were calculated. The signals from the force transducer were acquired on a personal computer and analyzed by processing software (Analyze II; StarMedical). In the fasted state, the areas surrounded by the contraction curve and the baseline were determined every 2 hrs after administration. For standardization, the calculated areas were divided by the IMC peak height before administration, and they were used as the motor index (MI). Results are presented as the mean+/− standard error of the mean (S.E.M., N=4-5). Statistical analysis was performed with Dunnett's multiple comparison test using GraphPad Prism (GraphPad Software, Inc.).

[2] = test system: proximal colon of conscious dogs; experiment: Proximal colon motility by implanted force transducers, fasted conscious dogs, oral dosing; format: in vivo; conditions: dog
Method: as §1

[3] = test system: gastric antrum and duodenum of conscious dogs; experiment: Gastro-duodenum contractions by implanted force transducers, fasted conscious dogs, oral dosing; format: in vivo; conditions: dog, 0.3 mg/kg (dose that enhances proximal colon motility), FIG. 5
Method: GI motility was assessed by processing the signals from the force transducers implanted in dogs prepared for investigation of motility. Briefly, dogs were anesthetized with isoflurane and the abdominal cavity was opened under aseptic conditions. Extraluminal force transducers (F-12IS, Star Medical, Tokyo) were sutured onto the seromuscular layer of the gastric antrum, the gastric body, the duodenum, and the proximal colon. After the surgery, protective jackets were placed on the dogs and they were housed in individual cages. The dogs were fasted overnight before the experiment and placed in the shield room. The motility was measured with a telemetry system (GTS-800, Star Medical, Tokyo) and data acquired into a personal computer with the acquisition software (Eight Star, Star Medical, Tokyo). […] Gut motility was then recorded more than 5 hours (hrs). To measure the gastric motility quantitatively, motor indexes that represent areas of contractions were calculated. The signals from the force transducer were acquired on a personal computer and analyzed by processing software (Analyze II; StarMedical). In the fasted state, the areas surrounded by the contraction curve and the baseline were determined every 2 hrs after administration. For standardization, the calculated areas were divided by the IMC peak height before administration, and they were used as the motor index (MI). […]

## COc1cc(N)c(Cl)cc1C(=O)NC1CCN(CCCOc2ccc(F)cc2)CC1OC (stereo not drawn) [Cisapride, cisapride]
[1]; dog, fasted, oral, 1 mg/kg, FIG. 2
  gastric antral motility: significantly increased gastric antral motility

## O=C(O)C1(CN2CCC(COc3noc4cccc(OCC(F)(F)F)c34)CC2)CCOCC1 [Compound A, 4-{[4-({[4-(2,2,2-trifluoroethoxy)-1,2-benzisoxazol-3-yl]-oxy}methyl)piperidin-1-yl]methyl}tetrahydro-2H-pyran-4-carboxylic acid]
[2]; 1 micro g/kg, FIG. 4
  amplitude and frequency of contractions in the proximal colon: enhanced
[2]; after treatment
  occurrence of giant migrating contractions: facilitated the occurrence of giant migrating contractions
[1]; dog GI motility models
  effects on GI motility / potency relative to other 5-HT4 agonists (cisapride, mosapride, tegaserod): more than 100 times
[1]; dog, fasted, oral
  potency relative to cisapride in enhancing gastric antral motility: approximately 1000 times
[1]; dog, fasted, oral, 0 to 2 hour period after administration, statistical significance (Dunnett)
  minimum effective dose, change in motor index (MI) of gastric antral motility: 1 micro g/kg
[1]; dog, fasted, oral, 0.1-10 micro g/kg, FIG. 1
  gastric antral motor activity: increased the gastric antral motor activity in dose dependent manner

## CCOc1cc(N)c(Cl)cc1C(=O)NCC1CN(Cc2ccc(F)cc2)CCO1 (stereo not drawn) [mosapride]
[1]; dog, fasted, oral, 3 mg/kg, FIG. 3
  gastric antral motility: tended to increase the antral motility

## COCCCN1CCC(NC(=O)c2cc(Cl)c(N)c3c2OCC3)CC1 [prucalopride]
[2]; 0.1 mg/kg, FIG. 5
  contractions of proximal colon: did not affect contractions of proximal colon
[2]; 0.3 mg/kg, FIG. 5
  colonic motor activity: enhanced the colonic motor activity
[3]
  gastro-duodenum contractions: induced excessive gastro-duodenum contractions
[1]; dog, fasted, oral, 0.1 mg/kg, FIG. 5
  gastric antral motility: stimulated gastric antral motility
